Tested on: HEK293-STF3A cells
Test: STF3A assay (STF luciferase reporter in Wnt3A-expressing HEK293 cells)
Format: cell-based
Details: Homo sapiens, 24 h, 1 day of treatment
Procedure, shortened: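 HEK293 cells carrying the STF reporter and expressing Wnt3A, seeded 2×10^4 per well overnight, then treated 1 day with compound at final 50 μM to 1.5 nM. Luciferase activity read by luminescence after Steady-Glo reagent, 10 min at room temperature.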

| SMILES | IC50 |
| --- | --- |
| O=C(CN1CCCC2=C1C(=O)N(C1CC1)C2=O)Nc1ccc(-c2cncc(F)c2)cn1 [Compound 106, 2-(6-cyclopropyl-5,7-dioxo-2,3,4,5,6,7-hexahydro-1H-pyrrolo[3,4-b]pyridin-1-yl)-N-(5′-fluoro-[3,3′-bipyridin]-6-yl)acetamide] | < 100 nM |
| CN1C(=O)C2=C(C1=O)N(CC(=O)Nc1ccc(-c3cncc(F)c3)cn1)CCC2 [Compound 143, N-(5′-fluoro-3,3′-bipyridin-6-yl)-2-(6-methyl-5,7-dioxo-2,3,4,5,6,7-hexahydro-1H-pyrrolo[3,4-b]pyridin-1-yl)acetamide] | < 100 nM |
| COc1ccccc1-c1ccc(NC(=O)CN2CCCC3=C2C(=O)N(C)C3=O)nn1 [Compound 28, N-(6-(2-methoxyphenyl)pyridazin-3-yl)-2-(6-methyl-5,7-dioxo-2,3,4,5,6,7-hexahydro-1H-pyrrolo[3,4-b]pyridin-1-yl)acetamide] | > 10000 nM |
| O=C(CN1CCCC2=C1C(=O)N(C1CC1)C2=O)Nc1cnc(-c2cncc(F)c2)cn1 [Compound 142, 2-(6-cyclopropyl-5,7-dioxo-2,3,4,5,6,7-hexahydro-1H-pyrrolo[3,4-b]pyridin-1-yl)-N-(5-(5-fluoropyridin-3-yl)pyrazin-2-yl)acetamide] | < 100 nM |
| Cc1cnc(-c2ccc(NC(=O)CN3CCCC4=C3C(=O)N(C3CC3)C4=O)nc2)cn1 [Compound 157, 2-(6-cyclopropyl-5,7-dioxo-2,3,4,5,6,7-hexahydro-1H-pyrrolo[3,4-b]pyridin-1-yl)-N-(5-(5-methylpyrazin-2-yl)pyridin-2-yl)acetamide] | < 100 nM |
| CC(C(=O)Nc1cc(F)c(-c2cccnc2)cn1)N1CCCC2=C1C(=O)N(C)C2=O (stereo not drawn) [Compound 119, N-(4-fluoro-3,3′-bipyridin-6-yl)-2-(6-methyl-5,7-dioxo-2,3,4,5,6,7-hexahydro-1H-pyrrolo[3,4-b]pyridin-1-yl)propanamide] | < 100 nM |
| CN1C(=O)C2=C(C1=O)N(CC(=O)Nc1ccc(-c3cncc(F)c3)nc1)CCC2 [Compound 100, N-(5′-fluoro-[2,3′-bipyridin]-5-yl)-2-(6-methyl-5,7-dioxo-2,3,4,5,6,7-hexahydro-1H-pyrrolo[3,4-b]pyridin-1-yl)acetamide] | < 100 nM |
| C[C@H](C(=O)Nc1ccc(-c2cccnc2)nc1)N1CCCC2=C1C(=O)N(C)C2=O (single isomer, unassigned) [Compound 117] | < 1000 nM |
| CN1C(=O)C2=C(C1=O)N(CC(=O)Nc1ccc(-c3ccccc3)cn1)CCC2 [Compound 5, 2-(6-methyl-5,7-dioxo-2,3,4,5,6,7-hexahydro-1H-pyrrolo[3,4-b]pyridin-1-yl)-N-(5-phenylpyridin-2-yl)acetamide] | < 100 nM |
| CN1C(=O)C2=C(C1=O)N(CC(=O)Nc1cnc(-c3cncc(F)c3)cn1)CCC2 [Compound 141, N-(5-(5-fluoropyridin-3-yl)pyrazin-2-yl)-2-(6-methyl-5,7-dioxo-2,3,4,5,6,7-hexahydro-1H-pyrrolo[3,4-b]pyridin-1-yl)acetamide] | < 100 nM |
| Cc1cncc(-c2ccc(NC(=O)CN3CCCC4=C3C(=O)N(C)C4=O)nc2)n1 [Compound 129, 2-(6-methyl-5,7-dioxo-2,3,4,5,6,7-hexahydro-1H-pyrrolo[3,4-b]pyridin-1-yl)-N-(5-(6-methylpyrazin-2-yl)pyridin-2-yl)acetamide] | < 100 nM |
| Cc1cc(NC(=O)CN2CCCC3=C2C(=O)N(C)C3=O)ccc1-c1ccccc1 [Compound 82, 2-(6-methyl-5,7-dioxo-2,3,4,5,6,7-hexahydro-1H-pyrrolo[3,4-b]pyridin-1-yl)-N-(2-methyl-[1,1′-biphenyl]-4-yl)acetamide] | < 100 nM |
| CC(C(=O)Nc1ccc(-c2ccccc2)nn1)N1CCCC2=C1C(=O)N(C)C2=O (stereo not drawn) [Compound 13, 2-(6-methyl-5,7-dioxo-2,3,4,5,6,7-hexahydro-1H-pyrrolo[3,4-b]pyridin-1-yl)-N-(6-phenylpyridazin-3-yl)propanamide] | < 100 nM |
| CN1C(=O)C2=C(C1=O)N(CC(=O)Nc1ccc(-c3cccc(F)c3)nn1)CCC2 [Compound 42, N-(6-(3-fluorophenyl)pyridazin-3-yl)-2-(6-methyl-5,7-dioxo-2,3,4,5,6,7-hexahydro-1H-pyrrolo[3,4-b]pyridin-1-yl)acetamide] | < 100 nM |
| CC(C(=O)Nc1ccc(-c2cccnc2)nc1)N1CCCC2=C1C(=O)N(C)C2=O (stereo not drawn) [Compound 20, N-([2,3′-bipyridin]-5-yl)-2-(6-methyl-5,7-dioxo-2,3,4,5,6,7-hexahydro-1H-pyrrolo[3,4-b]pyridin-1-yl)propanamide] | < 100 nM |
| CC(C(=O)Nc1ccc(-c2ccc(F)nc2)cn1)N1CCCC2=C1C(=O)N(C)C2=O (stereo not drawn) [Compound 96, N-(6′-fluoro-3,3′-bipyridin-6-yl)-2-(6-methyl-5,7-dioxo-2,3,4,5,6,7-hexahydro-1H-pyrrolo[3,4-b]pyridin-1-yl)propanamide] | < 1000 nM |
| CN1C(=O)C2=C(C1=O)N(CC(=O)Nc1ccc(-c3cncnc3)cc1)CCC2 [Compound 75, 2-(6-methyl-5,7-dioxo-2,3,4,5,6,7-hexahydro-1H-pyrrolo[3,4-b]pyridin-1-yl)-N-(4-(pyrimidin-5-yl)phenyl)acetamide] | < 100 nM |
| CC(C(=O)Nc1ccc(-c2cccnc2)cn1)N1CCCC2=C1C(=O)N(C)C2=O (stereo not drawn) [Compound 11, N-([3,3′-bipyridin]-6-yl)-2-(6-methyl-5,7-dioxo-2,3,4,5,6,7-hexahydro-1H-pyrrolo[3,4-b]pyridin-1-yl)propanamide] | < 100 nM |
| O=C(CN1CCCC2=C1C(=O)N(C1CC1)C2=O)Nc1ncc(-c2cccnc2)cc1F [Compound 107, 2-(6-cyclopropyl-5,7-dioxo-2,3,4,5,6,7-hexahydro-1H-pyrrolo[3,4-b]pyridin-1-yl)-N-(5-fluoro-[3,3′-bipyridin]-6-yl)acetamide] | < 1000 nM |
| O=C(CN1CCCC2=C1C(=O)N(C1CC1)C2=O)Nc1ccc(-c2cccnc2)nc1 [Compound 59, N-(2,3′-bipyridin-5-yl)-2-(6-cyclopropyl-5,7-dioxo-2,3,4,5,6,7-hexahydro-1H-pyrrolo[3,4-b]pyridin-1-yl)acetamide] | < 100 nM |
| O=C(CN1CCCC2=C1C(=O)N(C1CCC1)C2=O)Nc1ccc(-c2ccccc2)nn1 [Compound 38, 2-(6-cyclobutyl-5,7-dioxo-2,3,4,5,6,7-hexahydro-1H-pyrrolo[3,4-b]pyridin-1-yl)-N-(6-phenylpyridazin-3-yl)acetamide] | < 100 nM |
| CN1C(=O)C2=C(C1=O)N(CC(=O)Nc1ccc(-c3cccnn3)cc1)CCC2 [Compound 47, 2-(6-methyl-5,7-dioxo-2,3,4,5,6,7-hexahydro-1H-pyrrolo[3,4-b]pyridin-1-yl)-N-(4-(pyridazin-3-yl)phenyl)acetamide] | < 1000 nM |
| CN1C(=O)C2=C(C1=O)N(CC(=O)Nc1ccc(-c3cccnc3)cn1)CCC2 [Compound 8, N-([3,3′-bipyridin]-6-yl)-2-(6-methyl-5,7-dioxo-2,3,4,5,6,7-hexahydro-1H-pyrrolo[3,4-b]pyridin-1-yl)acetamide] | < 100 nM |
| Cc1cncc(-c2ccc(NC(=O)CN3CCCC4=C3C(=O)N(C)C4=O)cn2)c1 [Compound 149, 2-(6-methyl-5,7-dioxo-2,3,4,5,6,7-hexahydro-1H-pyrrolo[3,4-b]pyridin-1-yl)-N-(5′-methyl-[2,3′-bipyridin]-5-yl)acetamide] | < 100 nM |
